The text below walks through data of patent US20260248930A1, “PEPTIDE COMPOSITIONS TARGETING GLYPICAN-3 AND USES THEREOF” (PeptiDream Inc., priority 2023, published 2026).

As usually defined, the Kd is the equilibrium constant for the complex coming apart.

One test has as its target Human Glypican3-Fc (Homo sapiens, UniProt P51654). Put plainly: SPR binding to human Glypican3-Fc captured on Protein A chip, Method B-3 (5 concentrations). The note with it: SPR method B-3. As to the method: (§1) A Protein A sensor chip (Cytiva) was inserted into a Biacore T200 (Cytiva), priming was performed three times with a running buffer: HBS-P+, pH 7.4 (Cytiva), and equilibration was carried out at a flow rate of 30 μL/min. Glypican3-Fc was allowed to react for 60 seconds at a flow rate of 10 μL/min. After capturing human Glypican3-Fc, a peptide solution prepared to 10 mM in DMSO solution was diluted with a running buffer to a final concentration of 10 μM. […] Using the above samples, peptide kinetics for Glypican3 was obtained by SPR measurement. Kinetics evaluation of Glypican3 was performed by SPR measurements at a flow rate of 10 μL/min, setting the association time to 120 seconds and the disassociation time to 600 seconds.
(§2) The obtained data by Method B-1, Method B-2, Method B-3, and Method B-4 were analyzed by follow. Single Cycle Kinetics was used as the kinetics evaluation model, and curve fitting was performed using Biacore T200 Evaluation Software Version 3.0 (Cytiva).
On the technique in general: In SPR one partner is held on a chip, and binding of the other changes the refractive index at the surface.

Test [1] deals with Huh-7 cells (glypican 3 expressed on the cell surface). Kind of test: Flow cytometry, biotinylated peptides followed by SAPE, Huh-7. Type of test: cell-based, human. Conditions: biotinylated peptide at 100 nM followed by SAPE (1:250), on ice; compared with SK-Hep1 negative control; FIG. 3. As to the method:
(§3) Macrocyclic peptide-conjugates in this invention were tested in cells expressing glypican 3 and analyzed by flow cytometry.
(§4) HepG2 (human hepatocellular carcinoma) and SK-HEP-1 (human hepatic adenocarcinoma) cell lines were purchased from the American Type Culture Collection (ATCC; Manassas, VA). Huh-7 (human hepatoblastoma) cell line was purchased from the Japanese Collection of Research Bioresources Cell Bank (JCRB Cell Bank, Osaka, Japan). HepG2 and SK-HEP-1 were grown in EMEM (FUJIFILM Wako Pure Chemical Corporation, 055-08975) with 10% fetal bovine serum (FBS; Thermo Fisher Scientific, 10270106) and 0.1% gentamicin (NACALAI TESQUE, 11980-14). Huh-7 was grown in DMEM (Thermo Fisher Scientific, 10567014) with 10% FBS and 0.1% gentamicin.
(§5) HepG2, SK-HEP-1 and Huh-7 cells were collected from the culture dish and stained with biotinylated peptides at 100 nM followed by Streptavidin, R-Phycoerythrin Conjugate (SAPE; Thermo Fisher Scientific, S866) (1:250). Cells were washed with phosphate-buffered saline (PBS; FUJIFILM Wako Pure Chemical Corporation, 043-29791) containing 0.5% FBS after addition of peptides or SAPE. All staining procedures were performed on ice. Samples were measured using CytoFLEX S (Beckman Coulter) and CytExpert ver2.4 software. All data were analyzed using FlowJo™ (BD Bioscience). […]

The test system of test [2] is HepG2 cells (glypican 3 expressed on the cell surface). Put plainly: Flow cytometry, biotinylated peptides followed by SAPE, HepG2. Type of test: cell-based, human. Conditions: biotinylated peptide at 100 nM followed by SAPE (1:250), on ice; compared with SK-Hep1 negative control; FIG. 2. As to the method:
as §3, §4, §5

The target in a further test is T1, human Glypican3 (Homo sapiens, UniProt P51654).
T1 construct: purchased R&D systems 2119-GP
T1 sequence (P51654 25-554): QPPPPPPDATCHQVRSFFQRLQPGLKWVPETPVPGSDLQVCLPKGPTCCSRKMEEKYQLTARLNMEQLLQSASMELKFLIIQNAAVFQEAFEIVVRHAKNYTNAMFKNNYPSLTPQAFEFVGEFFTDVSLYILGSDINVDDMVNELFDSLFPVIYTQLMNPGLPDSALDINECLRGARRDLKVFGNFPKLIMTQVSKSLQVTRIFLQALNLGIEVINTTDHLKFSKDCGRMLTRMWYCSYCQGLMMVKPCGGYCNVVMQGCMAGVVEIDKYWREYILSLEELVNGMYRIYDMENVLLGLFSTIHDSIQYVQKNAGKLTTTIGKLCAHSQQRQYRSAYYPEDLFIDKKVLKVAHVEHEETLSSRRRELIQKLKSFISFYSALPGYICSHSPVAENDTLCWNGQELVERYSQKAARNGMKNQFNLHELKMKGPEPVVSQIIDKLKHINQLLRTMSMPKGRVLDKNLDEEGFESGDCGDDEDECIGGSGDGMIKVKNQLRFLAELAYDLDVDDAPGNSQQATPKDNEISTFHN
Kind of test: SPR binding to immobilized human Glypican3, Method B-1 (CM3 chip, amine coupling). Conditions: SPR method B-1. As to the method:
Macrocyclic peptides in this invention were tested for binding to Glypican-3 protein by SPR.
A CM3 sensor chip (Cytiva) was inserted into a Biacore T200 (Cytiva), primed three times with a running buffer: HBS-P+, pH 7.4 (Cytiva), and equilibrated at a flow rate of 30 μL/min. Ligand immobilization was performed at a flow rate of 10 μL/min. 50 μL each of 60 mM EDC solution (Cytiva) and 650 mM NHS solution (Cytiva) were mixed, and then reacted at a flow rate of 10 μL/min for 420 seconds. 150 μL of 0.2 μM human Glypican3 (R&D systems, catalog number: 2119-GP) solution which was prepared by diluting with 10 mM acetic acid solution (pH 5.0), was reacted at a flow rate of 10 μL/min for 420 seconds, and Glypican3 was immobilized on the CM3 sensor chip. After immobilization, 1.0 M ethanolamine aqueous solution (Cytiva) was allowed to react for 420 seconds at a flow rate of 10 μL/min for capping. A peptide lysate prepared to 10 mM in DMSO solution was diluted with running buffer to a final concentration of 10 μM peptide lysate. After that, 5 serial dilution series (100 nM, 50 nM, 25 nM, 10 nM, 5 nM) of peptide solutions were prepared. Using the above samples, peptide kinetics for Glypican3 was obtained by SPR measurement. […]
The obtained data by Method B-1, Method B-2, Method B-3, and Method B-4 were analyzed by follow. […]

The target in test [3] is Human Glypican3-Fc (ACRO Biosystems, GP3-H5258) (human) (UniProt P51654). Put plainly: SPR Biacore T200, Method B-3: Glypican3-Fc captured on Protein A chip, single cycle kinetics.
Human Glypican3-Fc (ACRO Biosystems, GP3-H5258) (human), sequence (P51654 25-559 limits assumed): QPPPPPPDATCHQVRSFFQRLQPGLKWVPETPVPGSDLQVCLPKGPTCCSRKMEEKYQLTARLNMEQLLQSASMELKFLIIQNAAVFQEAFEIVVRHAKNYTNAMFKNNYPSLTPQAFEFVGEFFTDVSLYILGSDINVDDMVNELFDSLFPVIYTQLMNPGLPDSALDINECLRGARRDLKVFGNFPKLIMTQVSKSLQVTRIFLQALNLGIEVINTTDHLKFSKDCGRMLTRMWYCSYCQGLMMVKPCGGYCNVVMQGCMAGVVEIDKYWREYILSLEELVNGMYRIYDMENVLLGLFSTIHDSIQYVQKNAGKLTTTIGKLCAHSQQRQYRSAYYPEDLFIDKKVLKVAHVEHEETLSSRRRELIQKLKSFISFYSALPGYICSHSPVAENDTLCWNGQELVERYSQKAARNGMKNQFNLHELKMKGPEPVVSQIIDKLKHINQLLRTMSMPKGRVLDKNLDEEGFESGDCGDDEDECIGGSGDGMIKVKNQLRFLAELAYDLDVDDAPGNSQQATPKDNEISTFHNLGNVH
In test [4] the target is T2, Human Glypican3-Fc (ACRO Biosystems, GP3-H5258) (human, UniProt P51654 25-559).
T2 construct: Bought Fc fusion, captured by anti-human IgG (Fc) antibody (Method B-2) or on a Protein A chip (Methods B-3, B-4); Supplier and catalogue number are printed only in Method B-2; B-3 and B-4 say only Glypican3-Fc / human Glypican3-Fc; not shown: Fc part of the bought fusion protein
T2 sequence (P51654 25-559 limits assumed): as above
The description is as above. The procedure:
as §1, §2

*1 amine or outer side, *2 acyl side, *3 side chain or, on linkers, in order; H or OH if unused. Where a SMILES comes first, the peptide text is derived from it. Bridges are numbered along the chain shown (N, C = ends). [ ]: non-standard residue; d: D form. The star is where a group is joined. ξ: configuration not given here. MeDapCOpipzaa = 3-(4-(carboxymethyl)piperazine-1-carboxamido)-2-(methylamino)propanoic acid, CN([C@@H](CNC(=O)N1CCN(CC(=O)[*:3])CC1)C(=O)[*:2])[*:1]; F4aao = (S)-2-amino-3-(4-(carboxymethoxy)phenyl)propanoic acid, O=C([C@H](Cc1ccc(OCC(=O)[*:3])cc1)N[*:1])[*:2]; MeHseMe = 4-methoxy-2-(methylamino)butanoic acid, COCC[C@@H](C(=O)[*:2])N(C)[*:1]; Phe(4-(1-Me-pyrazol-4-yl)) = Cn1cc(-c2ccc(C[C@H](N)C(=O)O)cc2)cn1; Biotin‑PEG12c = biotin-PEG12c group on the lysine side chain; TMe = O-methyl threonine, CO[C@H](C)[C@H](N[*:1])C(=O)[*:2]; NMeAla(isoquinolin-7-yl) = CN[C@@H](Cc1ccc2ccncc2c1)C(=O)O; 3Pal(6-Ph) = N[C@@H](Cc1ccc(-c2ccccc2)nc1)C(=O)O; Biotin = O=C1N[C@H]2[C@H](CS[C@H]2CCCCC(=O)*)N1; PEG10 = NCCOCCOCCOCCOCCOCCOCCOCCOCCOCCOCCC(=O)O; Phe(4-COOH) = N[C@@H](Cc1ccc(C(=O)O)cc1)C(=O)O; NMe2Nal = CN[C@@H](Cc1ccc2ccccc2c1)C(=O)O; AEF = NCCOc1ccc(C[C@H](N)C(=O)O)cc1; NMeI = CC[C@H](C)[C@H](NC)C(=O)O; NMeQ = CN[C@@H](CCC(N)=O)C(=O)O; NMeK = CN[C@@H](CCCCN)C(=O)O; NMeC = CN[C@@H](CS)C(=O)O; ξNMeC = CNC(CS)C(=O)O

In turn, `CC[N+]1=C(/C=C/C=C/C=C2/N(CCCCCC(=O)NCCCC[C@H](NC(=O)CCOCCOCCOCCOCCOCCOCCOCCOCCOCCOCCNC(=O)CNC(C)=O)C(N)=O)c3ccc(S(=O)(=O)O)cc3C2(C)C)C(C)(C)c2cc(S(=O)(=O)[O-])ccc21` [C-M-64, 2-[(1E,3E)-5-[(2E)-1-(5-{[(5)-5-carbamoyl-5-[1-(2-acetamidoacetamido)-3,6,9,12,15,18,21,24,27,30-decaoxatritriacontan-33-amido]pentyl]carbamoyl}pentyl)-3,3-dimethyl-5-sulfo-2,3-dihydro-1H-indol-2-ylidene]penta-1,3-dien-1-yl]-1-ethyl-3,3-dimethyl-3H-indol-1-ium-5-sulfonate, reference compound] came in with a Kd on Human Glypican3-Fc of less than 1 nM.

For the molecule `CC[C@H](C)[C@@H]1NC(=O)[C@H](Cc2ccc(C(=O)O)cc2)NC(=O)[C@H](CCC(N)=O)N(C)C(=O)[C@H](CC(=O)O)NC(=O)[C@H]([C@@H](C)CC)N(C)C(=O)[C@H](CCCCNC(C)=O)N(C)C(=O)CSCC(C(=O)NCC(=O)NCCOCCOCCOCCOCCOCCOCCOCCOCCOCCOCCC(=O)N[C@@H](CCCCNC(=O)CCCC[C@@H]2SC[C@@H]3NC(=O)N[C@@H]32)C(N)=O)N(C)C(=O)[C@H](Cc2ccc(-c3ccccc3)nc2)NC(=O)CNC(=O)[C@H](Cc2ccc3ccncc3c2)N(C)C(=O)[C@H](Cc2ccc(O)cc2)NC(=O)[C@H]([C@@H](C)CC)NC1=O` (some centres unmarked) [PLB-60] ({CH2CO}-[NMeK](Ac)[NMeI]D[NMeQ][Phe(4-COOH)]IIY[NMeAla(isoquinolin-7-yl)]G[3Pal(6-Ph)][ξNMeC]G[PEG10]K(Biotin)-NH2; thioether N-12), the “comparative staining of Huh-7 by flow cytometry” value in test [1] was “specific binding to both glypican expressing cells and SAPE”. The “comparative staining of HepG2 by flow cytometry” value in test [2] was “specific binding to both glypican expressing cells and SAPE”. Take `CC[C@H](C)[C@@H]1NC(=O)[C@H]([C@@H](C)OC)NC(=O)[C@H](Cc2ccc(C(=O)O)cc2)NC(=O)[C@H](CCC(N)=O)N(C)C(=O)[C@H](CC(=O)O)NC(=O)[C@H](CCC(N)=O)N(C)C(=O)[C@H](CCC(N)=O)N(C)C(=O)CSC[C@@H](C(N)=O)N(C)C(=O)[C@H](Cc2ccc(-c3cnn(C)c3)cc2)NC(=O)CNC(=O)[C@H](Cc2ccc3ccccc3c2)N(C)C(=O)[C@H](Cc2ccc(C(=O)O)cc2)NC1=O` [compound 18] ({CH2CO}-[NMeQ][NMeQ]D[NMeQ][Phe(4-COOH)]T(Me)I[Phe(4-COOH)][NMe2Nal]G[Phe(4-(1-Me-pyrazol-4-yl))][NMeC]-NH2; thioether N-12): the equilibrium dissociation constant (Kd) on human Glypican3 was 1.8 nM.

At Human Glypican3-Fc, `CC[C@H](C)[C@@H]1NC(=O)[C@H]([C@@H](C)OC)NC(=O)[C@H](Cc2ccc(C(=O)O)cc2)NC(=O)[C@H](CNC(=O)N2CCN(CC(=O)O)CC2)N(C)C(=O)[C@H](CC(=O)O)NC(=O)[C@H](CCOC)N(C)C(=O)[C@H](CCCCNC(=O)N2CCN(CC(=O)O)CC2)N(C)C(=O)CSC[C@@H](C(N)=O)N(C)C(=O)[C@H](Cc2ccc(-c3ccccc3)nc2)NC(=O)CNC(=O)[C@H](Cc2ccc3ccncc3c2)N(C)C(=O)[C@H](Cc2ccc(OCCN)cc2)NC1=O` [compound 55] registered a Kd of 1.8 nM.

B1: macrocyclic peptide of SEQ ID NO: 54 (peptide)
peptide: {CH2CO}-[MeDapCOpipzaa][MeHseMe]D[MeDapCOpipzaa][Phe(4-COOH)][TMe]I[AEF][NMeAla(isoquinolin-7-yl)]G[3Pal(6-Ph)][NMeC]-NH2
modifications: thioether N-12
Regarding B1, in test [3], the Kd was found to be 1 nM.

B2: macrocyclic peptide-biotin conjugate PLB-64 (SEQ ID NO: 76) (peptide)
peptide: {CH2CO}-[NMeK](Biotin‑PEG12c)[NMeI]D[NMeQ][Phe(4-COOH)]II[F4aao][NMeAla(isoquinolin-7-yl)]G[3Pal(6-Ph)][NMeC]-NH2
modifications: thioether N-12
In test [4], B2 had a Kd of 1.04 nM.

B3: macrocyclic peptide of SEQ ID NO: 50 (peptide)
peptide: {CH2CO}-[MeDapCOpipzaa][MeHseMe]D[MeDapCOpipzaa][Phe(4-COOH)][TMe]I[AEF][NMe2Nal]G[3Pal(6-Ph)][NMeC]-NH2
modifications: thioether N-12
For B3, in test [3], the Kd is 0.3 nM.
